Patent US6458568B1, “Method for the production of baccatin-III by enzymatic synthesis” (Institut fuer Bioanalytik, Umwelt-Toxikologie und …, priority 1998, dated 2002)

Each compound was assayed on acetyl transferase from Taxus baccata (assay: Enzymatic acetylation of substrates in the enzyme reactor (substrate specificity)). Conditions: used as in the example in place of 10-DAB; compared with 10-deacetyl baccatin III.
Type: biochemical
Experimental: The synthesis in the enzyme reactor is carried out under the following conditions: The solvent used in the process is a 1:4 mixture of chloroform and heptane.

| Compound | acetylation as substrate of the acetyl transferase |
| --- | --- |
| baccatin III | not acetylated |
| CC(=O)O[C@@]12CO[C@@H]1C[C@H](O)[C@@]1(C)C(=O)[C@H](O)C3=C(C)[C@@H](OC(=O)[C@H](O)[C@@H](NC(=O)c4ccccc4)c4ccccc4)C[C@@](O)([C@@H](OC(=O)c4ccccc4)[C@H]21)C3(C)C [10-Deacetyl taxol] | significantly weaker as a substrate |
| CC(=O)O[C@H]1C(=O)[C@@]2(C)[C@H]([C@H](OC(=O)c3ccccc3)[C@]3(O)C[C@H](OC(=O)[C@H](O)[C@@H](NC(=O)c4ccccc4)c4ccccc4)C(C)=C1C3(C)C)[C@]1(OC(C)=O)CO[C@@H]1C[C@@H]2O [taxol] | not acetylated |
